Measurements taken from PubChem BioAssay (NCI).
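Values below derive from 48-hour exposures of cells grown in 96-well plates, with endpoints linearly interpolated between the two concentrations bracketing the appropriate inhibition level. GI50: concentration for 50% inhibition of growth. TGI: total growth inhibition.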

Tests used:
Experiment in all cases: inhibition of tumour cell growth, NCI panel, 48 h
RPMI-8226 leukemia = test system: RPMI-8226 leukemia
A549 NSCLC = test system: A549 NSCLC
UACC-62 melanoma = test system: UACC-62 melanoma
OVCAR-8 ovarian = test system: OVCAR-8 ovarian
ACHN renal = test system: ACHN renal
M14 melanoma = test system: M14 melanoma
SF-268 CNS = test system: SF-268 CNS
IGROV1 ovarian = test system: IGROV1 ovarian
SW-620 colon = test system: SW-620 colon
K-562 leukemia = test system: K-562 leukemia
SF-539 CNS = test system: SF-539 CNS
HS 578T breast = test system: HS 578T breast
UACC-257 melanoma = test system: UACC-257 melanoma
SNB-75 CNS = test system: SNB-75 CNS
SF-295 CNS = test system: SF-295 CNS
SK-OV-3 ovarian = test system: SK-OV-3 ovarian
MOLT-4 leukemia = test system: MOLT-4 leukemia
MDA-MB-435 = test system: MDA-MB-435
NCI/ADR-RES ovarian = test system: NCI/ADR-RES ovarian
MDA-MB-231 breast = test system: MDA-MB-231 breast
NCI-H226 lung = test system: NCI-H226 lung
A498 renal = test system: A498 renal
OVCAR-5 ovarian = test system: OVCAR-5 ovarian
OVCAR-4 ovarian = test system: OVCAR-4 ovarian
786-0 renal = test system: 786-0 renal
EKVX NSCLC = test system: EKVX NSCLC
HL-60(TB) leukemia = test system: HL-60(TB) leukemia
NCI-H460 lung = test system: NCI-H460 lung
MCF7 breast = test system: MCF7 breast
RXF 393 renal = test system: RXF 393 renal
HOP-92 NSCLC = test system: HOP-92 NSCLC
OVCAR-3 ovarian = test system: OVCAR-3 ovarian
SNB-19 CNS = test system: SNB-19 CNS
SR leukemia = test system: SR leukemia
HCC-2998 colon = test system: HCC-2998 colon
U251 CNS = test system: U251 CNS
COLO 205 colon = test system: COLO 205 colon
CAKI-1 renal = test system: CAKI-1 renal
DU-145 prostate = test system: DU-145 prostate
LOX IMVI melanoma = test system: LOX IMVI melanoma
UO-31 renal = test system: UO-31 renal
KM12 colon = test system: KM12 colon
CCRF-CEM leukemia = test system: CCRF-CEM leukemia
PC-3 prostate = test system: PC-3 prostate
SK-MEL-28 melanoma = test system: SK-MEL-28 melanoma
HCT-15 colon = test system: HCT-15 colon
HOP-62 NSCLC = test system: HOP-62 NSCLC
NCI-H23 lung = test system: NCI-H23 lung
SK-MEL-5 melanoma = test system: SK-MEL-5 melanoma
HCT-116 colon = test system: HCT-116 colon
MALME-3M melanoma = test system: MALME-3M melanoma

Question: With COc1cc(/C=C/[N+](=O)[O-])c([N+](=O)[O-])cc1OC as the compound, how does the GI50 (RPMI-8226 leukemia) read?
Answer: The GI50 was 2.53 µM.

Question: What about the TGI (RPMI-8226 leukemia) of the same compound?
Answer: The TGI was 5.74 µM.

Question: What about the GI50 (A549 NSCLC) of the same compound?
Answer: The GI50 was 3.38 µM.

Question: And the TGI (A549 NSCLC)?
Answer: Its TGI is 10.3 µM.

Question: What about the GI50 (UACC-62 melanoma) of the same compound?
Answer: The GI50 was 2.34 µM.

Question: What about the TGI (UACC-62 melanoma) of the same compound?
Answer: Its TGI is 7.14 µM.

Question: And the GI50 (OVCAR-8 ovarian)?
Answer: The GI50 was 2.5 µM.

Question: What about the TGI (OVCAR-8 ovarian) of the same compound?
Answer: Its TGI is 9.46 µM.

Question: And the GI50 (ACHN renal)?
Answer: Its GI50 is 1.56 µM.

Question: What about the TGI (ACHN renal) of the same compound?
Answer: The TGI was 2.9 µM.

Question: And the GI50 (M14 melanoma)?
Answer: The GI50 was 1.6 µM.

Question: And the TGI (M14 melanoma)?
Answer: The TGI was 2.98 µM.

Question: What about the GI50 (SF-268 CNS) of the same compound?
Answer: The GI50 was 2.71 µM.

Question: What about the TGI (SF-268 CNS) of the same compound?
Answer: The TGI was 11.3 µM.

Question: What about the GI50 (IGROV1 ovarian) of the same compound?
Answer: Its GI50 is 2.55 µM.

Question: What about the TGI (IGROV1 ovarian) of the same compound?
Answer: The TGI was 11.9 µM.

Question: And the GI50 (SW-620 colon)?
Answer: The GI50 was 0.785 µM.

Question: And the TGI (SW-620 colon)?
Answer: The TGI was 2.26 µM.

Question: And the GI50 (K-562 leukemia)?
Answer: Its GI50 is 1.64 µM.

Question: And the TGI (K-562 leukemia)?
Answer: Its TGI is > 100 µM.

Question: And the GI50 (SF-539 CNS)?
Answer: The GI50 was 3.27 µM.

Question: And the TGI (SF-539 CNS)?
Answer: Its TGI is 84.7 µM.

Question: What about the GI50 (HS 578T breast) of the same compound?
Answer: Its GI50 is 1.88 µM.

Question: And the TGI (HS 578T breast)?
Answer: The TGI was 7.45 µM.

Question: And the GI50 (UACC-257 melanoma)?
Answer: The GI50 was 2.91 µM.

Question: What about the TGI (UACC-257 melanoma) of the same compound?
Answer: Its TGI is 11.9 µM.

Question: What about the GI50 (SNB-75 CNS) of the same compound?
Answer: Its GI50 is 2.25 µM.

Question: What about the TGI (SNB-75 CNS) of the same compound?
Answer: The TGI was 7.56 µM.

Question: What about the GI50 (SF-295 CNS) of the same compound?
Answer: The GI50 was 6.72 µM.

Question: What about the TGI (SF-295 CNS) of the same compound?
Answer: The TGI was 22.1 µM.

Question: What about the GI50 (SK-OV-3 ovarian) of the same compound?
Answer: Its GI50 is 12.8 µM.

Question: And the TGI (SK-OV-3 ovarian)?
Answer: The TGI was 25.4 µM.

Question: What about the GI50 (MOLT-4 leukemia) of the same compound?
Answer: Its GI50 is 2.21 µM.

Question: And the TGI (MOLT-4 leukemia)?
Answer: Its TGI is 9.11 µM.

Question: What about the GI50 (MDA-MB-435) of the same compound?
Answer: Its GI50 is 2.17 µM.

Question: And the TGI (MDA-MB-435)?
Answer: The TGI was 7.51 µM.

Question: What about the GI50 (NCI/ADR-RES ovarian) of the same compound?
Answer: The GI50 was 2.85 µM.

Question: What about the TGI (NCI/ADR-RES ovarian) of the same compound?
Answer: Its TGI is 10.1 µM.

Question: What about the GI50 (MDA-MB-231 breast) of the same compound?
Answer: Its GI50 is 1.7 µM.

Question: And the TGI (MDA-MB-231 breast)?
Answer: The TGI was 3.46 µM.

Question: And the GI50 (NCI-H226 lung)?
Answer: Its GI50 is 2.63 µM.

Question: And the TGI (NCI-H226 lung)?
Answer: Its TGI is 7.68 µM.

Question: And the GI50 (A498 renal)?
Answer: The GI50 was 3.03 µM.

Question: And the TGI (A498 renal)?
Answer: The TGI was 11.9 µM.

Question: And the GI50 (OVCAR-5 ovarian)?
Answer: Its GI50 is 1.98 µM.

Question: What about the TGI (OVCAR-5 ovarian) of the same compound?
Answer: Its TGI is 3.98 µM.

Question: And the GI50 (OVCAR-4 ovarian)?
Answer: Its GI50 is 1.57 µM.

Question: And the TGI (OVCAR-4 ovarian)?
Answer: The TGI was 2.93 µM.

Question: What about the GI50 (786-0 renal) of the same compound?
Answer: Its GI50 is 1.61 µM.

Question: And the TGI (786-0 renal)?
Answer: The TGI was 2.95 µM.

Question: What about the GI50 (EKVX NSCLC) of the same compound?
Answer: Its GI50 is 8.98 µM.

Question: What about the TGI (EKVX NSCLC) of the same compound?
Answer: Its TGI is 22.6 µM.

Question: What about the GI50 (HL-60(TB) leukemia) of the same compound?
Answer: Its GI50 is 1.32 µM.

Question: And the TGI (HL-60(TB) leukemia)?
Answer: The TGI was 5.71 µM.

Question: What about the GI50 (NCI-H460 lung) of the same compound?
Answer: The GI50 was 2.33 µM.

Question: What about the TGI (NCI-H460 lung) of the same compound?
Answer: Its TGI is 5.67 µM.

Question: And the GI50 (MCF7 breast)?
Answer: Its GI50 is 1.12 µM.

Question: What about the TGI (MCF7 breast) of the same compound?
Answer: The TGI was 2.73 µM.

Question: And the GI50 (RXF 393 renal)?
Answer: Its GI50 is 1.38 µM.

Question: And the TGI (RXF 393 renal)?
Answer: The TGI was 2.67 µM.

Question: What about the GI50 (HOP-92 NSCLC) of the same compound?
Answer: Its GI50 is 2.05 µM.

Question: And the TGI (HOP-92 NSCLC)?
Answer: The TGI was 4.27 µM.

Question: What about the GI50 (OVCAR-3 ovarian) of the same compound?
Answer: The GI50 was 1.3 µM.

Question: And the TGI (OVCAR-3 ovarian)?
Answer: Its TGI is 2.57 µM.

Question: What about the GI50 (SNB-19 CNS) of the same compound?
Answer: The GI50 was 6 µM.

Question: And the TGI (SNB-19 CNS)?
Answer: Its TGI is 19.8 µM.

Question: What about the GI50 (SR leukemia) of the same compound?
Answer: The GI50 was 1.6 µM.

Question: What about the TGI (SR leukemia) of the same compound?
Answer: Its TGI is 8.24 µM.

Question: What about the GI50 (HCC-2998 colon) of the same compound?
Answer: The GI50 was 1.73 µM.

Question: And the TGI (HCC-2998 colon)?
Answer: Its TGI is 3.22 µM.

Question: What about the GI50 (U251 CNS) of the same compound?
Answer: The GI50 was 1.92 µM.

Question: And the TGI (U251 CNS)?
Answer: The TGI was 5.35 µM.

Question: What about the GI50 (COLO 205 colon) of the same compound?
Answer: Its GI50 is 1.16 µM.

Question: And the TGI (COLO 205 colon)?
Answer: The TGI was 2.43 µM.

Question: What about the GI50 (CAKI-1 renal) of the same compound?
Answer: The GI50 was 1.7 µM.

Question: What about the TGI (CAKI-1 renal) of the same compound?
Answer: Its TGI is 7.17 µM.

Question: What about the GI50 (DU-145 prostate) of the same compound?
Answer: Its GI50 is 1.58 µM.

Question: And the TGI (DU-145 prostate)?
Answer: Its TGI is 2.93 µM.

Question: And the GI50 (LOX IMVI melanoma)?
Answer: The GI50 was 1.68 µM.

Question: What about the TGI (LOX IMVI melanoma) of the same compound?
Answer: The TGI was 3.05 µM.

Question: And the GI50 (UO-31 renal)?
Answer: The GI50 was 1.36 µM.

Question: And the TGI (UO-31 renal)?
Answer: The TGI was 2.81 µM.

Question: What about the GI50 (KM12 colon) of the same compound?
Answer: The GI50 was 1.93 µM.

Question: What about the TGI (KM12 colon) of the same compound?
Answer: Its TGI is 3.92 µM.

Question: And the GI50 (CCRF-CEM leukemia)?
Answer: Its GI50 is 2.13 µM.

Question: What about the TGI (CCRF-CEM leukemia) of the same compound?
Answer: Its TGI is 6.07 µM.

Question: And the GI50 (PC-3 prostate)?
Answer: Its GI50 is 2.3 µM.

Question: What about the TGI (PC-3 prostate) of the same compound?
Answer: Its TGI is 5.7 µM.

Question: What about the GI50 (SK-MEL-28 melanoma) of the same compound?
Answer: Its GI50 is 2.06 µM.

Question: And the TGI (SK-MEL-28 melanoma)?
Answer: The TGI was 4.72 µM.

Question: And the GI50 (HCT-15 colon)?
Answer: The GI50 was 1.33 µM.

Question: And the TGI (HCT-15 colon)?
Answer: Its TGI is 4.49 µM.

Question: And the GI50 (HOP-62 NSCLC)?
Answer: Its GI50 is 2.91 µM.

Question: And the TGI (HOP-62 NSCLC)?
Answer: Its TGI is 8.74 µM.

Question: And the GI50 (NCI-H23 lung)?
Answer: The GI50 was 2.12 µM.

Question: What about the TGI (NCI-H23 lung) of the same compound?
Answer: The TGI was 4.94 µM.

Question: And the GI50 (SK-MEL-5 melanoma)?
Answer: Its GI50 is 3.39 µM.

Question: What about the TGI (SK-MEL-5 melanoma) of the same compound?
Answer: The TGI was 12.3 µM.

Question: What about the GI50 (HCT-116 colon) of the same compound?
Answer: The GI50 was 0.977 µM.

Question: What about the TGI (HCT-116 colon) of the same compound?
Answer: Its TGI is 2.14 µM.

Question: What about the GI50 (MALME-3M melanoma) of the same compound?
Answer: The GI50 was 1.71 µM.

Question: And the TGI (MALME-3M melanoma)?
Answer: The TGI was 3.38 µM.
